Measured values: US10392412B2, “Platinum anticancer agents” (THE REGENTS OF THE UNIVERSITY OF CALIFORNIA, priority 2015, dated 2019)
Entries after “also recorded” stand apart in the source; their conditions may differ. Where two headings read alike, the source gives them in different places. Marks after values point to notes of the source that are not given here.

Key:
[1] = test system: MG-63 cells; experiment: Cytotoxicity CellTiter-Glo; type: cell-based, human; details: MG-63, Osteosarcoma
[2] = test system: U-2 OS cells; experiment: Cytotoxicity CellTiter-Glo; type: cell-based, human
[3] = test system: SNF539 cells; experiment: Cytotoxicity CellTiter-Glo; type: cell-based, human
[4] = test system: RMS13 rhabdomyosarcoma xenografts; experiment: RMS13 rhabdomyosarcoma xenograft in nu/nu mice; type: in vivo, mouse
Experimental: (§1) The xenograft studies were performed by subcutaneous injection of SK-N-DZ (neuroblastoma, 30×10^6 cells/animal) and RMS13 (rhabdomyosarcoma, 20×10^6 cells/animal) in right flank of the male Charles River Laboratories nu/nu mice (7-8 weeks old, weight ˜20 g). Mice were treated by intravenous tail vein injection once a week for 4 weeks. The tumor sizes and body weights were monitored twice a week. Tumor volumes were calculated according to the following formula: volume=height×[…]×length×0.5236.

[5] = test system: SAOS-2 cells; experiment: Cytotoxicity CellTiter-Glo; type: cell-based, human; details: SAOS-2, Osteosarcoma
[6] = test system: A673 cells; experiment: Cytotoxicity CellTiter-Glo; type: cell-based, human
[7] = test system: SHEP cells; experiment: Cytotoxicity CellTiter-Glo; type: cell-based, human
[8] = Maximum tolerated dose study: blood chemistry test (Table 7); details: mouse, in vivo, iv, 5 mg/kg
Experimental: The mice used in MTD were given standard chow devoid of added folic acid (low folate diet) (See, Leamon C P et al., J. Pharmacol. Exp. Ther. 327: 918-925). […] Therefore we also designed a MTD study in mice treated with low folate diet. Food consumption on the day before injection (Day −1) was recorded and then it was monitored every other day. […] Blood for clinical chemistry was collected if possible. Liver, kidney and bone marrow were collected. One side of each tissue (except bone marrow) will be fixed in 4-10% formalin for future histology analysis, and the rest of tissue will be cut into pieces, snap frozen, and stored at −80° C. until analysis. Blood samples for clinical chemistry were centrifuged at 8000 rpm for 10 min at 4° C. within 1 hour of collection. Plasma was collected into 1.5 mL eppendorf tubes and stored at −80° C. until analysis. The measured parameters were alanine transaminase (ALT), aspartate transaminase (AST), alkaline phosphatase (ALP), total bilirubin, glucose, blood urea nitrogen (BUN), creatinine, and electrolytes. All experiments were housed in a virus-free, temperature controlled facility on a 12-h light-dark cycle.

[9] = test system: HT29 cells; experiment: Cytotoxicity CellTiter-Glo; type: cell-based, human; details: read-out: IC50 (50% growth inhibition); HT29, Colon; 72 hours
Experimental: (§2) Human cancer cell lines were purchased from UCSF Cell Culture Facility (CCF) or obtained through Material Transfer.
(§3) The range of platinum concentrations used in the studies are 5 μM-100 μM. After 72 hours of treatment, the medium were removed and replaced with 50 μL of the media plus 50 μL of the CellTiterGlo reagent. The number of viable cells in culture will be determined based on quantitation of the ATP present, which is an indicator of the number of active cells. Concentration response graphs were generated for each compound using GraphPad Prism software. The graphs were analyzed using a curve fit for sigmoid dose-response, and IC50 values were derived. The results were expressed as mean IC50 values with the standard error of the mean.

[10] = test system: PC3 cells; experiment: Cytotoxicity CellTiter-Glo; type: cell-based, human; details: read-out: IC50 (50% growth inhibition); PC3, Prostate; 72 hours
Experimental: as §2, §3

[11] = test system: AsPC1 cells; experiment: Cytotoxicity CellTiter-Glo; type: cell-based, human; details: read-out: IC50 (50% growth inhibition); AsPC1, Pancreas; 72 hours
Experimental: as §2, §3

[12] = test system: HCT116 cells; experiment: Cytotoxicity CellTiter-Glo; type: cell-based, human; details: read-out: IC50 (50% growth inhibition); HCT116, Colon; 72 hours
Experimental: as §2, §3

[13] = test system: H226 cells; experiment: Cytotoxicity CellTiter-Glo; type: cell-based, human; details: read-out: IC50 (50% growth inhibition); H226, Non-small cell squamous; 72 hours
Experimental: as §2, §3

[14] = test system: DU145 cells; experiment: Cytotoxicity CellTiter-Glo; type: cell-based, human; details: read-out: IC50 (50% growth inhibition); DU145, Prostate; 72 hours
Experimental: as §2, §3

[15] = test system: SH-SY5Y cells; experiment: Cytotoxicity CellTiter-Glo; type: cell-based, human
[16] = test system: T98G cells; experiment: Cytotoxicity CellTiter-Glo; type: cell-based, human
[17] = test system: RMS13 cells; experiment: Cytotoxicity CellTiter-Glo; type: cell-based, human; details: RMS13, Rhabdomyosarcoma
[18] = test system: OVCAR2 cells; experiment: Cytotoxicity CellTiter-Glo; type: cell-based, human; details: read-out: IC50 (50% growth inhibition); OVCAR2, Ovary; 72 hours
[19] = test system: A2780-CP cells; experiment: Cytotoxicity CellTiter-Glo; type: cell-based, human; details: read-out: IC50 (50% growth inhibition), Ovary, 72 hours
[20] = test system: PE04 cells; experiment: Cytotoxicity CellTiter-Glo; type: cell-based, human; details: read-out: IC50 (50% growth inhibition); PE04, Ovary; 72 hours
[21] = test system: U87MG cells; experiment: Cytotoxicity CellTiter-Glo; type: cell-based, human
[22] = test system: A204 cells; experiment: Cytotoxicity CellTiter-Glo; type: cell-based, human; details: A204, Rhabdomyosarcoma
[23] = test system: Kelly cells; experiment: Cytotoxicity CellTiter-Glo; type: cell-based, human
[24] = test system: PE01 cells; experiment: Cytotoxicity CellTiter-Glo; type: cell-based, human; details: read-out: IC50 (50% growth inhibition); PE01, Ovary; 72 hours
[25] = test system: SK-N-DZ neuroblastoma xenografts; experiment: SK-N-DZ neuroblastoma xenograft in nu/nu mice; type: in vivo, mouse
Experimental: as §1

[26] = test system: SNB75 cells; experiment: Cytotoxicity CellTiter-Glo; type: cell-based, human
[27] = test system: A2780 cells; experiment: Cytotoxicity CellTiter-Glo; type: cell-based, human; details: read-out: IC50 (50% growth inhibition); A2780, Ovary; 72 hours
[28] = test system: U251 cells; experiment: Cytotoxicity CellTiter-Glo; type: cell-based, human
[29] = test system: genomic DNA; experiment: Platinum-DNA adducts by ICP-MS in HEK293 cells; type: cell-based, human; details: 10 μM, 2 hours
Experimental: Method to quantify platinum-DNA adducts by ICP-MS has been previously described (5,6). In brief, HEK293 cells were seeded in 6-well poly-D-lysine plate (cell density=0.5×10^6 cells/well). […] After 2 hours, the cells were washed twice with cold HBBS. The platinum content associated with genomic DNA was determined as described elsewhere. Genomic DNA was isolated from the cell pellets using Genomic DNA purification kit (Promega) and the DNA-bound platinum was determined by ICP-MS, which was normalized to total DNA content (determined by absorption spectrometry at 260 nm).

[30] = test system: HeLa R1-11 (SLC19A1)
[31] = test system: HeLa R1-11 (SLC46A1)
[32] = read-out: IC50 (50% growth inhibition), 72 hours
[33] = read-out: IC50 (50% growth inhibition), Neuroblastoma, 72 hours
[34] = read-out: IC50 (50% growth inhibition), Brain, 72 hours

N.N.[Cl][Pt][Cl] [Cisplatin, cisplatin, reference compound]
GI50 [1]: 5.1 ± 2.3 µM
IC50 [1, 32]: 5.1 ± 2.3 µM
GI50 ([2]; Osteosarcoma): 59.3 ± 9 µM
IC50 ([2]; read-out: IC50 (50% growth inhibition), Osteosarcoma, 72 hours): 59.3 ± 9 µM
IC50 ([3]; read-out: IC50 (50% growth inhibition), SNF539, Brain, 72 hours): 6.5 ± 7.2 µM
tumor volume / tumor growth ([4]; RMS13 rhabdomyosarcoma xenograft, 5 mg/kg i.v. once a week for 4 weeks): inhibited tumor growth
survival ([4]; RMS13 xenograft model, 5 mpk): increase survival rate
GI50 [5]: 20.5 ± 9.9 µM
IC50 [5, 32]: 20.5 ± 9.9 µM
GI50 ([6]; A673, Ewing's sarcoma): 400 ± 300 nM
IC50 ([6]; read-out: IC50 (50% growth inhibition), A673, Ewing's Sarcoma, 72 hours): 400 ± 300 nM
GI50 ([7]; Neuroblastoma): 4.4 ± 2.4 µM
IC50 [7, 33]: 4.4 ± 2.4 µM
Cl [8]: 102.33*
IC50 [9]: 2300 ± 400 nM
IC50 [10]: 2500 ± 300 nM
IC50 [11]: 2900 ± 30 nM
IC50 [12]: 2100 ± 300 nM
IC50 [13]: 13.8 ± 2.8 µM
IC50 [14]: 500 ± 10 nM
GI50 ([15]; Neuroblastoma): 1000 ± 600 nM
IC50 [15, 33]: 1000 ± 600 nM
IC50 [16, 34]: 27.5 µM
GI50 [17]: 2500 ± 500 nM
IC50 [17, 32]: 2500 ± 500 nM
IC50 [18]: 3.3 ± 1.6 µM
IC50 [19]: 8.6 ± 2.1 µM
IC50 [20]: 4.9 ± 2 µM
IC50 [21, 34]: 16.2 ± 12.6 µM
GI50 [22]: 4.6 ± 4.4 µM
IC50 [22, 32]: 4.6 ± 4.4 µM
GI50 ([23]; Neuroblastoma): 7 ± 5 µM
IC50 [23, 33]: 7 ± 5 µM
IC50 [24]: 600 ± 400 nM
tumor volume / tumor growth ([25]; SKNDZ neuroblastoma xenograft, 5 mg/kg i.v. once a week for 4 weeks): inhibited tumor growth
survival ([25]; SKNDZ xenograft model, 5 mpk, 5 mg/kg): significant difference in survival; also recorded: increase survival rate
IC50 ([26]; read-out: IC50 (50% growth inhibition), SNB75, Brain, 72 hours): 15.4 ± 12.6 µM
IC50 [27]: 1200 ± 200 nM
IC50 ([28]; read-out: IC50 (50% growth inhibition), U251, Brain, 72 hours): 11.2 ± 10.8 µM

CN(Cc1cnc2nc(N)nc(N)c2n1)c1ccc(C(=O)N[C@@H](CCC(=O)O)C(=O)O)cc1 [Methotrexate, methotrexate, reference compound]
platinum content associated with genomic DNA (platinum-DNA adducts) [29]: did not have strong intensity (binding)

CN(Cc1cnc2nc(N)nc(N)c2n1)c1ccc(C(=O)NC(CCC(=O)O)C(=O)O)cc1.[Cl][Pt][Cl] (stereo not shown) [SM-69B]
IC50 ([3]; read-out: IC50 ± S.D. (50% growth inhibition), SF539, Brain - High grade, + 1 mM Folic Acid): 43.2 ± 12.9 µM
IC50 ([3]; read-out: IC50 ± S.D. (50% growth inhibition), SF539, Brain - High grade, two independent experiments): 0.46 ± 0.04 µM
IC50 ([16]; read-out: IC50 ± S.D. (50% growth inhibition), Brain - High grade, + 1 mM Folic Acid): 5.3 ± 1.2 µM
IC50 ([16]; read-out: IC50 ± S.D. (50% growth inhibition), Brain - High grade, two independent experiments): 0.31 ± 0.05 µM
IC50 [30]: 109 nM
IC50 ([21]; read-out: IC50 ± S.D. (50% growth inhibition), Brain - Low grade, + 1 mM Folic Acid): 13.9 ± 11.1 µM
IC50 ([21]; read-out: IC50 ± S.D. (50% growth inhibition), Brain - Low grade, two independent experiments): 0.96 ± 0.09 µM
IC50 [31]: 702 nM
IC50 ([26]; read-out: IC50 ± S.D. (50% growth inhibition), SNB75, Brain - High grade, + 1 mM Folic Acid): 63.3 ± 3.3 µM
IC50 ([26]; read-out: IC50 ± S.D. (50% growth inhibition), SNB75, Brain - High grade, two independent experiments): 11.1 ± 2.1 µM
IC50 ([28]; read-out: IC50 ± S.D. (50% growth inhibition), U251, Brain - High grade, + 1 mM Folic Acid): 18 ± 1.4 µM
IC50 ([28]; read-out: IC50 ± S.D. (50% growth inhibition), U251, Brain - High grade, two independent experiments): 0.87 ± 0.13 µM
